Data: patent publication US5811278A, “Dipeptidyl peptidase IV from Xanthomonas maltophilia and process for producing the same” (Ajinomoto Co., Inc., priority 1995, dated 1998)
Read-outs that look alike come from different tables or passages of the source. Where a SMILES comes first, the peptide text is derived from it. The star is where a group is joined. βNA = c1ccc2cc(N*)ccc2c1

Columns and labels:
Type in all cases: biochemical
[1] = molecular target: T1, dipeptidyl peptidase IV obtainable from Xanthomonas maltophilia (Stenotrophomonas maltophilia, UniProt P95782); assay: Substrate specificity for low molecular weight synthetic peptide substrates; details: for activity at 500 µM: read-out: Relative activity (%)
Experimental: In the present invention, the dipeptidyl peptidase IV activity was measured according to the method of Yoshimoto et al. (J. Biochem., 91:1899-1906 (1982)).
The used substrates are shown in Table 1, and the concentration thereof was 0.5 mM.
Using Gly-Pro-β-naphthylamide as the substrate, 0.1 ml of 5 mM Gly-Pro-β-naphthylamide and 0.1 ml of an enzyme solution were added to 0.8 ml of 20 mM Tris-HCl buffer (pH 8.0) containing 5 mM EDTA and allowed to react with each other at 37° C. for 5 minutes, the reaction was terminated by adding 0.5 ml of Fast Garnet GBC (0.1% solution prepared by dissolving it in 1M acetate buffer (pH 4.0) containing 10% Triton X-100) and then absorbance at 550 nm was measured.

[2] = molecular target: T1, dipeptidyl peptidase IV obtainable from Xanthomonas maltophilia; assay: biochemical
Target sequence in this assay (P95782 21-741 limits assumed): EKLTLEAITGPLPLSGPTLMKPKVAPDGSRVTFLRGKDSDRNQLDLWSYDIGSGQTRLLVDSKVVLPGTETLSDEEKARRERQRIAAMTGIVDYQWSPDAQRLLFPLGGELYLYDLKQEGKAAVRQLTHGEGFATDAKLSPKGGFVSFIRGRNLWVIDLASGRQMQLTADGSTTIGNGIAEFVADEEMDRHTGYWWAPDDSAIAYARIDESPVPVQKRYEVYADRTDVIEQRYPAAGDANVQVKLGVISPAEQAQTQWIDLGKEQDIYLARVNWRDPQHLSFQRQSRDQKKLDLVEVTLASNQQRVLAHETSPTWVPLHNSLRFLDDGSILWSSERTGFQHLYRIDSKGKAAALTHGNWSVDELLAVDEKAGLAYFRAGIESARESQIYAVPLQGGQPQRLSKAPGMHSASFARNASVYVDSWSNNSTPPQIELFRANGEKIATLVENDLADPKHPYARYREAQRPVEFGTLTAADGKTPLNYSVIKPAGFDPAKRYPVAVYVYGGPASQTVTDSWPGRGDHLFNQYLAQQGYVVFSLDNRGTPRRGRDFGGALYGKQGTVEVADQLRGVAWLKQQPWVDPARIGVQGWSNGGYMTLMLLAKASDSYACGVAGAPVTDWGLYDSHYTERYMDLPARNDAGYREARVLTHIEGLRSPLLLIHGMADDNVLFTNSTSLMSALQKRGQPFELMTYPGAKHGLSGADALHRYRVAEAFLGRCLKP

[3] = molecular target: T1, dipeptidyl peptidase IV obtainable from Xanthomonas maltophilia; assay: Influence of metal ions on the enzyme activity; details: substrate Gly-Pro-β-naphthylamide; for Relative activity (%): metal ion 1 mM, control 100
Target sequence in this assay (P95782 21-741 limits assumed): as above

[4] = hydrolysis of the substrate by the enzyme, substrate concentration 0.5 mM

## C[C@H](N)C(=O)N[C@@H](C)C(=O)Nc1ccc2ccccc2c1 [Ala--Ala-β-naphthylamide] (H-Ala-Ala-βNA)
[1]; [4]
  activity at 500 µM: 100%

## C[C@H](N)C(=O)N1CCC[C@H]1C(=O)Nc1ccc2ccccc2c1 [Ala--Pro-β-naphthy1amide] (H-Ala-Pro-βNA)
[1]
  activity at 500 µM: 105%

## O=C(O)CN(CCN(CC(=O)O)CC(=O)O)CC(=O)O [EDTA]
[2]; read-out: Relative activity (%)
  activity at 5000 µM: 100%

## NCC(=O)N1CCC[C@H]1C(=O)Nc1ccc2ccccc2c1 [Gly--Pro-β-naphthylamide, Gly-Pro-β-naphthylamide] (H-Gly-Pro-βNA)
[1]; [4]
  activity at 500 µM: 100%

## [Cl][Hg][Cl] [HgCl2]
[3]; 1 mM
  Inhibition of the enzyme activity by metal ion (in words): inhibited by HgCl2 almost completely
[3]
  Relative activity (%): 0%

## [Cl][Ni][Cl] [NiCl2]
[3]
  Relative activity (%): 100%

## O=C(O)c1cc[c]([Hg][Cl])cc1 [PCMB]
[2]
  Relative activity (%): 96%

## [Cl-].[Cl-].[Zn+2] [ZnCl2]
[3]
  Relative activity (%): 95%

## Gly--Pro--Ala
[1]; [4]
  Relative activity (%): 40%

## Gly--Pro--Leu--Gly (GPLG; printed: Gly--Pro--Leu--Gly)
[1]; [4]
  Relative activity (%): 50%
